Measured values as given in patent US8889731B2, “Compounds, compositions and methods for repelling blood-feeding arthropods and deterring their landing and feeding” (Contech Enterprises Inc., priority 2007, dated 2014).

Legend:
Anopheles gambiae = assay: Arm-in-cage repellent/deterrent bioassay on exposed human forearm (modified WHO protocol), Anopheles gambiae; assay type: in vivo
Description: (§1) Candidate repellents and deterrents were bioassayed according to a modified protocol from the World Health Organization (1996). At least 1 hour prior to each bioassay, 75 host-seeking non blood-fed, nulliparous, 5- to 8-day-old female Aedes aegypti, Anopheles gambiae or Culex quinquefasciatus were placed into a wood-framed cage (26.5 cm on each side and 42.5 cm high) with a wooden floor, screened mesh sides and top, and a clear acrylic front fitted with a cotton stockinette sleeve (10 cm diameter). The test subject's arm was covered with an elbow-length polyethylene glove with an excised patch (16.6 cm long, 6 cm wide) to expose the ventral forearm of the test subject. Candidate deterrents were formulated in mineral (paraffin) oil and applied to the exposed forearm 5 min prior to inserting the arm into the cage. The inserted arm remained in the cage for 3 min every 30 min. Prior to each 3-min bioassay period, the hand of the untreated arm was inserted into the cage to ascertain that it received 10 bites within 30 sec as an indication of “biting pressure”.
(§2) The bioassay was terminated when the treated arm received ≧2 bites in one 3-min bioassay period or one bite in each of two consecutive bioassay periods. The time elapsed from experiment initiation to first bite was recorded as deterrent failure or complete protection time.
(§3) N,N-diethyl-m-toluamide formulated in ethanol at a corresponding dose served as a positive control, and mineral oil by itself served as a negative control. On each day, only one candidate compound was tested, ensuring that any residual material in the chamber had disappeared before the next bioassay.
To determine the repellence and deterrence of 8-allylsulfanyloctan-1-ol against Anopheles gambiae, a 2%, 5% or a 10% formulation of 8-allylsulfanyloctan-1-ol in mineral oil was applied in Experiments 5-7 at a dose of 1.5 mg per cm^2 to the skin of the test person, and was bioassayed according to the protocol described under EXAMPLE 2. In Experiment 8, mineral oil by itself served as a negative control and was tested at the same dose (1.5 mg per cm^2) as in Experiments 5-7. Each of Experiments 5-8 was replicated 4 times.
To be able to compare the repellence and deterrence caused N,N-diethyl-m-toluamide (DEET), and by 8-allylsulfanyloctan-1-ol, Experiment 13 tested a 2% formulation of N,N-diethyl-m-toluamide in ethanol (the best formulant for this compound) for protection from bites by Anopheles gambiae. A dose of 1.5 mg per cm^2 was applied to the skin of the test person and bioassayed according to the protocol described under EXAMPLE 2.
To compare the repellence and deterrence against Anopheles gambiae caused by 8-allyl-sulfanyloctan-1-ol as a single active ingredient and by 8-allylsulfanyloctan-1-ol in combination with vanillin as a second active ingredient, we tested a 6.7% emulsion of vanillin (Experiment 18), a 6.7-% emulsion of 8-allylsulfanyl-octan-1-ol (Experiment 19) and a 13.4% emulsion of 8-allylsulfanyloctan-1-ol plus vanillin (1:1 ratio) (Experiment 20). 8-Allylsulfanyloctan-1-ol and vanillin were formulated in Emulsion No. 1 (see EXAMPLE 9). In each of Experiments 18-20, test stimuli were applied at a dose of 1.5 mg per cm^2 to the skin of the test person, and were bioassayed according to the protocol described under EXAMPLE 2. In Experiment 21, Emulsion No. 1 served as a positive control and was tested at the same dose (1.5 mg per cm^2) as in experiments 18-20. Each of Experiments 18-21 was replicated three times.

mosquitoes = assay: General bioassay procedure with garlic oil, its components and fractions (mosquito species not given); assay type: in vivo
Description: as §1, §2, §3
Garlic oil (Allium sativum—Mexico; Clearwater Soap Works, Box 1775 RR1, Clearwater, BC V0E 1N0, Canada) was formulated in mineral oil and tested using the general bioassay procedure described in EXAMPLE 2 at a dose of 0.1 mg per cm^2 of arm surface. It expressed repellence and deterrence for ˜30 min.
Some of the 10 components in FIG. 1 were bioassayed singly (see general bioassay procedure) and in various combinations, all of which were as deterrent to mosquitoes as garlic oil.
To determine the most deterrent component(s) in garlic oil, it was fractionated by HPLC into four fractions, each containing one or more of the EAD-active components (compounds 1-10 in FIG. 1 and 11-14 in TABLE 2). Each fraction was then bioassayed and shown to be similarly effective in repelling and deterring mosquitoes.
Components with high molecular weight (>250 daltons) are advantageous in that they: 1) dissipate slowly from treated surfaces; 2) provide long-lasting protection against mosquitoes and 3) convey little, if any, offensive smell. The relative abundance of such components was enhanced by treating garlic oil under vacuum, thus stripping away lower-boiling components. In GC-EAD analyses of the high-boiling residue, four components elicited responses from mosquito antennae.

## C=CCSCCCCCCCCO [Compound 24, 8-allylsulfanyloctan-1-ol]
Anopheles gambiae; 2% formulation in mineral oil, 1.5 mg per cm^2, Experiment 5
  protection from bites, average duration: 297 min
Anopheles gambiae; 5% formulation in mineral oil, 1.5 mg per cm^2, Experiment 6
  protection from bites, average duration: 314 min
Anopheles gambiae; 6.7% single active in Emulsion No. 1 (FIG. 8 legend: 2.0%), 1.5 mg per cm^2, Experiments 18, 19
  protection from bites, average duration: 369 min
Anopheles gambiae; 10% formulation in mineral oil, 1.5 mg per cm^2, Experiment 7
  protection from bites, average duration: 487 min
mosquitoes
  repellent and deterrent effect in bioassays (in words): very potent, even at a low dose
